According to patent publication US20120135995A1, “FUNGICIDAL DIPHENYL-SUBSTITUTED PYRIDAZINES” (E.I. Dupont de Nemours and Company, priority 2009, published 2012):
Marks after values point to notes of the source that are not given here.

Tests used:
Assay type in all cases: in vivo
Septoria nodorum = test: Test C: wheat seedlings sprayed, next day inoculated with Septoria nodorum (wheat glume blotch), visual disease rating; conditions: sprayed day before inoculation
Text: (§1) General protocol for preparing test suspensions for Tests A-F: the test compounds were first dissolved in acetone in an amount equal to 3% of the final volume and then suspended at the desired concentration (in ppm) in acetone and purified water (50/50 mix) containing 250 ppm of the surfactant Trem® 014 (polyhydric alcohol esters). The resulting test suspensions were then used in Tests A-F. Spraying a 200 ppm test suspension to the point of run-off on the test plants was the equivalent of a rate of 500 g/ha. An asterisk “*” next to the rating value indicates a 40 ppm test suspension.
The test suspension was sprayed to the point of run-off on wheat seedlings. The following day the seedlings were inoculated with a spore suspension of Septoria nodorum (the causal agent of wheat glume blotch) and incubated in a saturated atmosphere at 24° C. for 48 h, and then moved to a growth chamber at 20° C. for 6 days, after which time visual disease ratings were made.
(§2) Results for Tests A-F are given in Table A. In the Table, a rating of 100 indicates 100% disease control and a rating of 0 indicates no disease control (relative to the controls). A dash (-) indicates no test results. All results are for 200 ppm except where followed by “*”, which indicates 40 ppm.

[1] = test system: Puccinia recondita f. sp. tritici; test: Test E1: wheat seedlings inoculated with Puccinia recondita f. sp. tritici (wheat leaf rust), sprayed afterwards, visual disease rating; conditions: sprayed after inoculation
Text: as §1
Wheat seedlings were inoculated with a spore suspension of Puccinia recondita f. sp. tritici (the causal agent of wheat leaf rust) and incubated in a saturated atmosphere at 20° C. for 24 h, and then moved to a growth chamber at 20° C. for 2 days. At the end of this time the test suspension was sprayed to the point of run-off on the wheat seedlings, and then the seedlings were moved to a growth chamber at 20° C. for 6 days, after which time visual disease ratings were made.
as §2

Erysiphe graminis = test: Test F: wheat seedlings sprayed, next day inoculated with Erysiphe graminis (wheat powdery mildew), visual disease rating; conditions: sprayed day before inoculation
Text: as §1
The test suspension was sprayed to the point of run-off on wheat seedlings. The following day the seedlings were inoculated with a spore dust of Erysiphe graminis, (the causal agent of wheat powdery mildew) and incubated in a growth chamber at 20° C. for 8 days, after which time visual disease ratings were made.
as §2

Septoria tritici = test: Test D: wheat seedlings sprayed, next day inoculated with Septoria tritici (wheat leaf blotch), visual disease rating; conditions: sprayed day before inoculation
Text: as §1
The test suspension was sprayed to the point of run-off on wheat seedlings. The following day the seedlings were inoculated with a spore suspension of Septoria tritici (the causal agent of wheat leaf blotch) and incubated in saturated atmosphere at 24° C. for 48 h, and then moved to a growth chamber at 20° C. for 19 days, after which time visual disease ratings were made.
as §2

Botrytis cinerea = test: Test A: tomato seedlings sprayed, next day inoculated with Botrytis cinerea (tomato Botrytis), visual disease rating; conditions: sprayed day before inoculation
Text: as §1
The test suspension was sprayed to the point of run-off on tomato seedlings. The following day the seedlings were inoculated with a spore suspension of Botrytis cinerea (the causal agent of tomato Botrytis) and incubated in saturated atmosphere at 20° C. for 48 h, and then moved to a growth chamber at 24° C. for 3 days, after which time visual disease ratings were made.
as §2

[2] = test system: Puccinia recondita f. sp. tritici; test: Test E2: wheat seedlings sprayed, next day inoculated with Puccinia recondita f. sp. tritici (wheat leaf rust), visual disease rating; conditions: sprayed day before inoculation
Text: as §1
The test suspension was sprayed to the point of run-off on wheat seedlings. The following day the seedlings were inoculated with a spore suspension of Puccinia recondita f. sp. tritici (the causal agent of wheat leaf rust) and incubated in a saturated atmosphere at 20° C. for 24 h, and then moved to a growth chamber at 20° C. for 7 days, after which time visual disease ratings were made.
as §2

Alternaria solani = test: Test B: tomato seedlings sprayed, next day inoculated with Alternaria solani (tomato early blight), visual disease rating; conditions: sprayed day before inoculation
Text: as §1
The test suspension was sprayed to the point of run-off on tomato seedlings. The following day the seedlings were inoculated with a spore suspension of Alternaria solani (the causal agent of tomato early blight) and incubated in a saturated atmosphere at 27° C. for 48 h, and then moved to a growth chamber at 20° C. for 5 days, after which time visual disease ratings were made.
as §2

[3] = Puccinia recondita, 200 ppm test suspension
[4] = Puccinia recondita, 40 ppm test suspension (*)

Row | Structure (SMILES) | Test C rating (disease control) (Septoria nodorum; 200 ppm test suspension) | Test E1 rating (disease control) ([1]; 200 ppm test suspension) | Test F rating (disease control) (Erysiphe graminis; 200 ppm test suspension) | Test D rating (disease control) (Septoria tritici; 200 ppm test suspension) | Test A rating (disease control) (Botrytis cinerea; 200 ppm test suspension) | Test E2 rating (disease control) ([2]; 200 ppm test suspension) | Test B rating (disease control) (Alternaria solani; 200 ppm test suspension) | other results
1 | COc1cc(OC)cc(-c2cnnc(Cl)c2-c2c(F)cc(F)cc2F)c1 [Compound 5, 3-chloro-5-(3,5-dimethoxyphenyl)-4-(2,4,6-trifluorophenyl)pyridazine] | – | – | – | – | – | – | – | pest or weed control at 200 ppm (Septoria nodorum; Parastagonospora nodorum, 200 ppm test suspension): 100%; pest or weed control at 200 ppm [1, 3]: 99%; pest or weed control at 200 ppm (Erysiphe graminis; Blumeria graminis, 200 ppm test suspension): 100%; pest or weed control at 200 ppm (Septoria tritici; Zymoseptoria tritici, 200 ppm test suspension): 98%; pest or weed control at 200 ppm (Botrytis cinerea; Botrytis cinerea, 200 ppm test suspension): 99%; pest or weed control at 200 ppm [2, 3]: 100%; pest or weed control at 200 ppm (Alternaria solani; Alternaria solani, 200 ppm test suspension): 100%
2 | COc1ccc(-c2c(C)nnc(C(C)=O)c2-c2cc(OC)cc(OC)c2)cc1 [Compound 14] | 0% | 16% | 84% | 99% | 99% | 95% | 0% | –
3 | COc1cc(OC)cc(-c2c(C(C)C)nnc(Cl)c2-c2c(F)cc(F)cc2F)c1 [Compound 16] | 92% | 100% | 100% | 99% | 99% | 100% | 99% | –
4 | COc1cc(OC)cc(-c2c(C(C)C)nnc(C)c2-c2c(F)cc(F)cc2F)c1 [Compound 18] | 82% | 100% | 100% | 99% | 100% | 100% | 99% | –
5 | COc1ccc(-c2c(C)nnc(C(C)(C)O)c2-c2cc(OC)cc(OC)c2)cc1 [Compound 19] | – | – | – | – | – | – | – | Test C rating (disease control) (Septoria nodorum; 40 ppm test suspension (*)): 0* %; Test E1 rating (disease control) ([1]; 40 ppm test suspension (*)): 0* %; Test F rating (disease control) (Erysiphe graminis; 40 ppm test suspension (*)): 27* %; Test D rating (disease control) (Septoria tritici; 40 ppm test suspension (*)): 97* %; Test A rating (disease control) (Botrytis cinerea; 40 ppm test suspension (*)): 84* %; Test E2 rating (disease control) ([2]; 40 ppm test suspension (*)): 96* %; Test B rating (disease control) (Alternaria solani; 40 ppm test suspension (*)): 99* %
6 | COc1cc(OC)cc(-c2c(C(C)=O)nnc(C)c2-c2c(F)cc(F)cc2F)c1 [Compound 20, 1-[4-(3,5-dimethoxyphenyl)-6-methyl-5-(2,4,6-trifluorophenyl)-3-pyridazinyl]ethanone] | – | – | – | – | – | – | – | pest or weed control at 40 ppm (Septoria nodorum; Parastagonospora nodorum, 40 ppm test suspension (*)): 0%; pest or weed control at 40 ppm [1, 4]: 41%; pest or weed control at 40 ppm (Erysiphe graminis; Blumeria graminis, 40 ppm test suspension (*)): 98%; pest or weed control at 40 ppm (Septoria tritici; Zymoseptoria tritici, 40 ppm test suspension (*)): 96%; pest or weed control at 40 ppm (Botrytis cinerea; Botrytis cinerea, 40 ppm test suspension (*)): 99%; pest or weed control at 40 ppm [2, 4]: 99%; pest or weed control at 40 ppm (Alternaria solani; Alternaria solani, 40 ppm test suspension (*)): 26%
7 | COc1cc(OC)c(Cl)c(-c2c(C)nnc(Cl)c2-c2c(F)cccc2F)c1 [Compound 28] | 78% | – | 100% | 100% | 100% | 100% | 100% | –
8 | COc1cc(OC)cc(-c2c(C)nnc(C)c2-c2c(F)cccc2F)c1 [Compound 31] | 100% | – | 98% | 100% | 100% | 99% | 99% | –
9 | COc1cc(OC)c(Cl)c(-c2c(C)nnc(C)c2-c2c(F)cccc2F)c1Cl [Compound 34] | 0% | – | 97% | 100% | 100% | 100% | 0% | –
10 | COc1cc(OC)cc(-c2c(C)nnc(F)c2-c2c(F)cccc2Cl)c1 [Compound 47] | 99% | 100% | 99% | – | – | 99% | 100% | –
11 | COc1cc(OC)cc(-c2c(C)nnc(Cl)c2-c2ccc(F)cc2Cl)c1 [Compound 48] | 0% | 0% | 97% | – | – | 99% | 100% | –
12 | COc1cc(OC)c(Cl)c(-c2c(C)nnc(C)c2-c2ccc(F)cc2F)c1 [Compound 49] | 99% | 100% | 100% | – | – | 100% | 99% | –
13 | COc1cc(-c2c(C)nnc(C)c2-c2ccc(F)cc2F)cc(OC)c1Cl [Compound 50] | 100% | 100% | 100% | – | – | 100% | 100% | –
14 | COc1cc(OC)c(Cl)c(-c2c(C)nnc(F)c2-c2ccc(F)cc2F)c1 [Compound 51] | 0% | 0% | 99% | – | 99% | 100% | 100% | –
15 | COc1cc(OC)cc(-c2c(C)nnc(C)c2-c2ccc(F)cc2Cl)c1 [Compound 52] | 87% | 9% | 99% | – | 99% | 100% | 94% | –
16 | COc1cc(OC)c(Cl)c(-c2c(C)nnc(Cl)c2-c2ccc(F)cc2Cl)c1 [Compound 53] | 98% | 98% | 100% | – | 99% | 100% | 99% | –
